4 molecules from PMC5242521 (PLoS ONE, 2017) can be followed below.

pIC50: −log10 of the molar value. Read-outs that look alike come from different tables or passages of the source.

One data set addresses T1, OAT1 (Homo sapiens, UniProt Q4U2R8).
T1 construct: host or cells: HEK293
T1 sequence (Q4U2R8 1-563): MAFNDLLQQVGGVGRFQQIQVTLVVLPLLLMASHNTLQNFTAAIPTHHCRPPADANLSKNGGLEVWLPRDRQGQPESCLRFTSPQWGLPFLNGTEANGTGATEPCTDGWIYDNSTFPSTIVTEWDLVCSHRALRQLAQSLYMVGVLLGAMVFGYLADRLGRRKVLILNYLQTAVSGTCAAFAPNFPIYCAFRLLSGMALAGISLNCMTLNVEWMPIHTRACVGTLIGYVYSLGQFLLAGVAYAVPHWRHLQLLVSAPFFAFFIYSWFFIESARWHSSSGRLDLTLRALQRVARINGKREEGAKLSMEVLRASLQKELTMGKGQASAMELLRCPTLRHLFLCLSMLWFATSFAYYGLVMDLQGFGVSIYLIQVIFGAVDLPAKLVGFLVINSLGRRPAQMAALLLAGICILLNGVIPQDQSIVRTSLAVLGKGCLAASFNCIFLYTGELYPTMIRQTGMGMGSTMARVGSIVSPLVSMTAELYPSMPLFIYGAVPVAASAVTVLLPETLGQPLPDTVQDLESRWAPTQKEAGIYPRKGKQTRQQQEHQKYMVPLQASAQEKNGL
As to the kind of experiment: OAT1 activity: fluorescein accumulation in HEK-OAT1 cells. It counts as cell-based.

A further data set addresses T2, OCT1 (Homo sapiens, UniProt O15245).
T2 sequence (O15245 1-554): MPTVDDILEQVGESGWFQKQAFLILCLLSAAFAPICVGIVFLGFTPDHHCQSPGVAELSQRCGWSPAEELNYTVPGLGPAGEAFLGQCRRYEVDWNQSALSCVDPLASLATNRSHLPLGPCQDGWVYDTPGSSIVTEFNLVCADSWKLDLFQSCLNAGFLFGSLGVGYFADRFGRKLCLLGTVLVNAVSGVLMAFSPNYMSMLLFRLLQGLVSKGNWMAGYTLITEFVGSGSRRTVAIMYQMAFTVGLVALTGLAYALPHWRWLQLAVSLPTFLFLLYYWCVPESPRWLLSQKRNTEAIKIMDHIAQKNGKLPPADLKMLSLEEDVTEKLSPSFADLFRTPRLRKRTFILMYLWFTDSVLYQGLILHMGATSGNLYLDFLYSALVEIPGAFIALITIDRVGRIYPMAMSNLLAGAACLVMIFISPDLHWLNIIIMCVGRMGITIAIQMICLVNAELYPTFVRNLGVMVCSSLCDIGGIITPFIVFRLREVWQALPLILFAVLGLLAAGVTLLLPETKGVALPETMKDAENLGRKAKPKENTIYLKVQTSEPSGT
In words: OCT1 activity: DAPI accumulation in HEK-OCT1 cells. The settings on record: for effect on OCT1 activity: pyrethroid 100 μM; for effect on OCT1 activity / pIC50: DAPI; for pIC50: IC50 for OCT1 inhibition, HEK-OCT1 cells; for inhibition at 100 μM: human, pH 7.4. On the procedure: (§1) The effects of pyrethroids on activity of ABC and SLC transporters were determined through measuring cellular accumulation or retention of fluorescent or radiolabeled reference substrates for transporters, in the presence or absence of reference inhibitors, as previously described. The nature of cells and reference substrates and inhibitors used for transport assays are summarized in S3 Table.
(§2) The nature of substrates and reference inhibitors and the incubation times with substrates, that varied according to the transporter, were selected in agreement with previous studies and are indicated in S3 Table. The total incubation volume with substrates was 200 μL/well. […] An aliquot of cell lysate (5 μL) was then taken for determining cellular protein content by the Bradford method.
(§3) Intracellular concentrations of reference substrates were initially expressed as fluorescence arbitrary units (for fluorescent dye substrates) or as moles (for radiolabeled substrates) and normalized to cellular protein content, determined by the Bradford method. They were finally used for calculating percentage of transporter activity, according to the following equations [41, 45]: %ABCtransporter activity=([Substrateref inh]-[Substratepyrethroid])×100/([Substrateref inh]-[Substratecontrol]) (1) %SLC transporter activity=([Substratepyrethroid]-[Substratref inh])×100/([Substratecontrol]-[Substrateref inh]) (2) with [Substratepyrethroid] = cellular concentration of reference substrate in the presence of pyrethroid, [Substrateref inh] = cellular concentration of reference substrate in the presence of reference inhibitor and [Substratecontrol] = cellular concentration of reference substrate in control cells not exposed to pyrethroid or reference inhibitor.
(§4) The initial tested concentration of pyrethroids was 100 μM. […] Such concentrations were calculated using GraphPad Prism software (GraphPad Software, La Jolla, CA), through nonlinear regression based on the four parameter logistic function using the following equations: […]

Another data set has as its target T3, OCT2 (Homo sapiens, UniProt O15244).
T3 sequence (O15244 1-555): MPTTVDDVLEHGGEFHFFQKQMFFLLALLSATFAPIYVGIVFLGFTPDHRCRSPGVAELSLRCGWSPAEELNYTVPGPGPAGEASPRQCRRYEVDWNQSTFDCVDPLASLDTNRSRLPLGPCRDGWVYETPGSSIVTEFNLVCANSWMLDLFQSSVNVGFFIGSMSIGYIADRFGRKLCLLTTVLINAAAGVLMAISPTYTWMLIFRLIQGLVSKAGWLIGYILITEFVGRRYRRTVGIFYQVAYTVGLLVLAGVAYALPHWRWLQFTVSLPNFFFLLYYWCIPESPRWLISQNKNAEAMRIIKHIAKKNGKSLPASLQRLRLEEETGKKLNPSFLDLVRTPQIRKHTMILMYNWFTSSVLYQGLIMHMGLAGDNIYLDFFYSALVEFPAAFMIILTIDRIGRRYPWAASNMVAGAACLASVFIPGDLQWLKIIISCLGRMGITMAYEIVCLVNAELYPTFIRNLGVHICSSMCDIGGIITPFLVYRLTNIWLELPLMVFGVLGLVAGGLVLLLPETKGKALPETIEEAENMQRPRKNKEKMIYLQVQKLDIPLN
In words: OCT2 activity: rhodamine 123 accumulation in HEK-OCT2 cells. The settings on record: for effect on OCT2 activity: pyrethroid 100 μM. The method, then: as §1, §2, §3, §4

Method for OAT1: The effects of pyrethroids on activity of ABC and SLC transporters were determined through measuring cellular accumulation or retention of fluorescent or radiolabeled reference substrates for transporters, in the presence or absence of reference inhibitors, as previously described [41].
The total incubation volume with substrates was 200 μL/well. […] An aliquot of cell lysate (5 μL) was then taken for determining cellular protein content by the Bradford method [44].
Intracellular concentrations of reference substrates were initially expressed as fluorescence arbitrary units (for fluorescent dye substrates) or as moles (for radiolabeled substrates) and normalized to cellular protein content, determined by the Bradford method [44]. They were finally used for calculating percentage of transporter activity, according to the following equations [41, 45]: %ABCtransporter activity=([Substrateref inh]-[Substratepyrethroid])×100/([Substrateref inh]-[Substratecontrol]) (1) %SLC transporter activity=([Substratepyrethroid]-[Substratref inh])×100/([Substratecontrol]-[Substrateref inh]) (2) with [Substratepyrethroid] = cellular concentration of reference substrate in the presence of pyrethroid, [Substrateref inh] = cellular concentration of reference substrate in the presence of reference inhibitor and [Substratecontrol] = cellular concentration of reference substrate in control cells not exposed to pyrethroid or reference inhibitor.

`C#CCN1CC(=O)N(COC(=O)[C@@H]2C(C=C(C)C)C2(C)C)C1=O` (mixture of isomers) [imiprothrin]: on OAT1 (pyrethroid up to 100 μM), the “effect on OAT1 activity” value was “failed to alter”. The “effect on OCT1 activity” value at OCT1 is “markedly inhibited”. The “effect on OCT2 activity” value at OCT2 was “inhibited”.
For the molecule `C=CCC1=C(C)C(OC(=O)C2C(C=C(C)C)C2(C)C)CC1=O` (centres unmarked) [allethrin], the “effect on OAT1 activity” value on OAT1 (pyrethroid up to 100 μM) is given as “failed to alter”. For the same molecule, the “effect on OAT1 activity” value at OAT1 (pyrethroid up to 100 μM, listed as Allethrin) is “No effect (up to 100 μM)”. At OCT1, this molecule had a pIC50 of 5.59 and an inhibition at 100 μM of 87.9%. Further, at OCT2, the pIC50 is 4.37 and the “effect on OCT2 activity” value is given as “markedly inhibit”.
For the molecule `C#CCC1=C(C)C(OC(=O)C2C(C=C(C)C)C2(C)C)CC1=O` (centres unmarked) [prallethrin], the “effect on OAT1 activity” value on OAT1 (pyrethroid up to 100 μM) is “failed to alter”. Further, the “effect on OCT1 activity” value on OCT1 was “markedly inhibited”. Further, the “effect on OCT2 activity” value at OCT2 is given as “inhibited”.
`CC(C)=CC1C(C(=O)OCN2C(=O)C3=C(CCCC3)C2=O)C1(C)C` (centres unmarked) [tetramethrin]: the “effect on OAT1 activity” value on OAT1 is “No effect (up to 100 μM)”. At OCT1, the pIC50 was 5.31 and the inhibition at 100 μM was found to be 73.8%. For the same molecule, on OCT2, the negative logarithm of the IC50 (pIC50) is 4.95 and the “effect on OCT2 activity” value is “markedly inhibit”.

As a reminder, the pIC50 is −log10 of the IC50, conventionally taken in molar units. Read a low pIC50 as a large IC50. As usually defined, the inhibition is the percentage by which the read-out fell short of the control. Low readings indicate a weak effect, high ones a strong effect.
